Where a name gives a salt, the structure may show the parent alone.
Experiments:
Wistar male rats [1] = experiment: Suppressing effect on increase of blood sugar after oral glucose loading (Test Example 3, glucose oxidase method); type: in vivo, rat; conditions: Wistar male rats fasted 24 hours, 1 mg/kg po; for Blood-sugar level, 0 minute: 0 minute (before glucose loading); for Blood-sugar level, 30 minutes after glucose loading: glucose 2 g/kg po
Procedure: Blood-sugar levels of Wistar male rats (10-week old, Charles river) fasted for 24 hours were measured. A test compound was orally administered to the rats in a dose of 1 mg/kg, and then immediately glucose (2 g/kg) was orally administered to the rats. After 30 minutes from the glucose loading, blood-sugar levels were further measured to evaluate suppressing effects of test compounds on increase of blood sugar. The sugar levels were measured by the glucose oxidase method [Clin. Chem., 6, 466 (1960); J. Clin. Path., 22, 246 (1969); Clin. Chem. Acta, 40, 115 (1972); Clin. Chem., 20, 606 (1974) or the like]. The test compounds were dissolved in 0.5% methylcellulose 400 for administration.

DPP-IV = target: T1, DPP-IV (Rattus norvegicus, UniProt P14740); experiment: Test for inhibitory action against DPP-IV (rat serum, Gly-Pro-AMC fluorescence); type: biochemical; conditions: Gly-Pro-AMC 50 μmol/L, pH 7.8, room temperature 20 minutes
T1 construct: The coagulated blood was centrifuged at 3,000 rpm for 20 minutes to separate serum for use in the experiment; from tissue; host or cells: rat serum (blood from the crural aorta, coagulated and centrifuged)
Procedure: Under mild anesthesia with diethylether, a rat was incised at lower left side of the limb, and the crural aorta was cut and blood was collected. The collected blood was immediately ice-cooled. The coagulated blood was centrifuged at 3,000 rpm for 20 minutes to separate serum for use in the experiment. As reaction buffer, an aqueous solution containing HEPES (final concentration of 25 mmol/L) and sodium chloride (final concentration of 140 mmol/L) was prepared so as to give a final pH of 7.8, and used after addition of BSA (final concentration of 1%). An assay was conducted using a black, flat-bottomed 96 well plate. A test sample (2 μL) was added to each well, and the sample was added with rat serum (25 u L) and reaction buffer (25 u L) containing magnesium chloride (80 mmol/L), and the mixture was left stand at room temperature for 5 minutes. Then, a reaction was initiated by the addition of 50 u L of a solution of Gly-Pro-AMC (AMC: 7-amino-4-methylcoumarin) (final concentration of 50 μmol/L) to each well, and the mixture was left stand in the dark at room temperature for 20 minutes. AMC, which was released by DPP-IV activity, was quantified by measurement of fluorescence at 460 nm which was excited at 390 nm. DPP-IV activity was calculated according to the following equation:
Inhibitory activity against DPP-IV=100×{1−(Fs−F0)/(F100−F0)}
F100: Fluorescence intensity of AMC with addition of serum
F0: Fluorescence intensity of AMC without addition of serum
Fs: Fluorescence intensity of AMC with addition of a sample and serum

Wistar male rats [2] = experiment: Suppressing effect on increase of blood sugar after oral glucose loading (Test Example 2); type: in vivo, rat; conditions: Wistar male rats fasted 24 hours, 30 mg/kg po
Procedure: Blood-sugar levels of Wistar male rats (9-week old, Charles river) fasted for 24 hours were measured. A test compound was orally administered to the rats in a dose of […], and then immediately glucose (2 g/kg) was orally administered to the rats. After 30 minutes from the glucose loading, blood-sugar levels were further measured to evaluate suppressing effects of test compounds on increase of blood sugar. The blood-sugar levels were measured by a portable apparatus for measurement of blood sugar [Blood glucose meter, Dexter-Z (Bayer. Sankyo, Tokyo)]. The test compounds were dissolved in 0.5% methylcellulose 400 for administration. The results are shown in Table 3 (** indicates p<0.01 in Student's t-test).

T1 sequence (P14740 37-767 limits assumed): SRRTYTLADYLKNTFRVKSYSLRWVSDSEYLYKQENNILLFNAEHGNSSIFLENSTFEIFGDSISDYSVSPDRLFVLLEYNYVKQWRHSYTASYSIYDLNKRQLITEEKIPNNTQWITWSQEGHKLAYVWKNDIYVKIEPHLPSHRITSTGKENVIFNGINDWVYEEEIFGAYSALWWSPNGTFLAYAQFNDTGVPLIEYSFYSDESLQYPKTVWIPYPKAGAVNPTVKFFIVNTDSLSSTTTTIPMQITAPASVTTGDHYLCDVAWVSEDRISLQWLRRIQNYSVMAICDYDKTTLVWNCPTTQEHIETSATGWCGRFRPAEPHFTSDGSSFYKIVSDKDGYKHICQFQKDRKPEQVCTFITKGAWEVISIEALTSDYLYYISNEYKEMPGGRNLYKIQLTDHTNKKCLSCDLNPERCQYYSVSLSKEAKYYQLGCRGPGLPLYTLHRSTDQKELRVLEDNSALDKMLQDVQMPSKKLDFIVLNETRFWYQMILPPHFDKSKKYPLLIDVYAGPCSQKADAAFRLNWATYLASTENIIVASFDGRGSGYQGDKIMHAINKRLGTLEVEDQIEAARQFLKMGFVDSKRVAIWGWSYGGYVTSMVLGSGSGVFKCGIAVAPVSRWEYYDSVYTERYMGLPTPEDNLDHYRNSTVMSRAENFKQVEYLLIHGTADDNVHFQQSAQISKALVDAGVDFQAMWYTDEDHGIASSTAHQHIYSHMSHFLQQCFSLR

Row | SMILES | IC50 (DPP-IV) [nM] | other results
1 | CCN(C)S(=O)(=O)c1ccc(NCC(C)(C)NCC(=O)N2CCC[C@H]2C#N)nc1 [Compound 513, (S)-1-{1-[5-(N-Ethyl-N-methylaminosulfonyl)-2-pyridylamino]-2-methyl-2-propylamino}acetyl-2-pyrrolidinecarbonitrile] | – | Blood-sugar level, 0 minute (Wistar male rats [1]): 109 ± 6 mg/dL; Blood-sugar level, 30 minutes after glucose loading (Wistar male rats [1]): 252 ± 22 mg/dL
2 | CC1(NCC(=O)N2CCC[C@H]2C#N)CCN(c2ccccn2)CC1 [Compound 238, (S)-1-[4-Methyl-1-(2-pyridyl)-4-piperidylamino]acetyl-2-pyrrolidinecarbonitrile dihydrochloride] | 11 | –
3 | CC(C)(CNc1ccc(C(N)=O)cn1)NCC(=O)N1CCC[C@H]1C#N [Compound 221, (S)-1-[1-(5-Carbamoyl-2-pyridylamino)-2-methyl-2-propylamino]acetyl-2-pyrrolidinecarbonitrile] | 27 | –
4 | CC(C)(CNc1ccc(C#N)cc1)NCC(=O)N1CCC[C@H]1C#N [Compound 703, (S)-1-[1-(4-Cyanoanilino)-2-methyl-2-propylamino]acetyl-2-carbonitrile fumarate] | 53 | –
5 | N#Cc1cccnc1NCc1ccc(CNCC(=O)N2CCC[C@H]2C#N)cc1 [Compound 201, (S)-1-{4-[(3-Cyano-2-pyridyl)aminomethyl]benzylamino}acetyl-2-pyrrolidinecarbonitrile oxalate] | 392 | –
6 | CC1(NCC(=O)N2CCC[C@H]2C#N)CCN(c2ccc(S(=O)(=O)N3CC=CC3)cn2)CC1 [Compound 529, (S)-1-{4-Methyl-1-[5-(3-pyrrolin-1-ylsulfonyl)-2-pyridyl]-4-piperidylamino}acetyl-2-pyrrolidinecarbonitrile] | 26 | –
7 | CN(C)S(=O)(=O)c1ccc(NCC(C)(C)NCC(=O)N2CCC[C@H]2C#N)nc1 [Compound 501, (S)-1-{1-[5-(N,N-Dimethylaminosulfonyl)-2-pyridylamino]-2-methyl-2-propylamino}acetyl-2-pyrrolidinecarbonitrile] | 23 | Blood-sugar level, 0 minute (Wistar male rats [1]): 95 ± 7 mg/dL; Blood-sugar level, 30 minutes after glucose loading (Wistar male rats [1]): 182 ± 16 mg/dL
8 | N#C[C@@H]1CCCN1C(=O)CNCCNc1cnccn1 [Compound 101, (S)-1-[2-(2-Pyrazinylamino)ethylamino]acetyl-2-pyrrolidinecarbonitrile dimethanesulfonate] | 31 | blood sugar level, 0 minute (Wistar male rats [2]; 0 minute (before glucose loading)): 68 ± 2 mg/dL; blood sugar level, 30 minutes after glucose loading (Wistar male rats [2]; glucose 2 g/kg po, 30 minutes, ** p<0.01 Student's t-test): 104 ± 4** mg/dL
9 | CC1(NCC(=O)N2CCC[C@H]2C#N)CCN(c2ccc(C#N)cn2)CC1 [Compound 207, (S)-1-[1-(5-Cyano-2-pyridyl)-4-methyl-4-piperidylamino]acetyl-2-pyrrolidinecarbonitrile dihydrochloride] | 15 | –
10 | N#C[C@@H]1CCCN1C(=O)CNC1CCN(S(=O)(=O)c2ccccc2)CC1 [Compound 407, (S)-1-(1-Benzenesulfonyl-4-piperidylamino)acetyl-2-carbonitrile methanesulfonate] | 20 | –
11 | CC(C)(CNc1ccc(S(=O)(=O)NCCO)cn1)NCC(=O)N1CCC[C@H]1C#N [Compound 524, (S)-1-{1-{5-[N-(2-Hydroxyethyl)aminosulfonyl]-2-pyridylamino}-2-methyl-2-propylamino}acetyl-2-pyrrolidinecarbonitrile] | 34 | –
12 | N#C[C@@H]1CCCN1C(=O)CNCCNC(=O)c1ccccc1 [Compound 403, (S)-1-(2-Benzamidoethylamino)acetyl-2-pyrrolidinecarbonitrile hydrochloride] | 124 | –
13 | CC1(NCC(=O)N2CCC[C@H]2C#N)CCN(c2ncccn2)CC1 [Compound 233, (S)-1-[4-Methyl-1-(2-pyrimidinyl)-4-piperidylamino]acetyl-2-pyrrolidinecarbonitrile] | 19 | Blood-sugar level, 0 minute (Wistar male rats [1]): 93 ± 15 mg/dL; Blood-sugar level, 30 minutes after glucose loading (Wistar male rats [1]): 183 ± 8 mg/dL
14 | N#Cc1ccc(NCC2(NC(=O)CN3CCC[C@H]3C#N)CCCC2)nc1 [Compound 602, 1-[(5-Cyanopyridin-2-ylamino)methyl]-1-[(S)-2-cyanopyrrolidinylacetylamino]cyclopentane fumarate] | 41 | –
15 | N#C[C@@H]1CCCN1C(=O)CNCCNc1cnc2ccccc2n1 [Compound 103, (S)-1-[2-(2-Quinoxalinylamino)ethylamino]acetyl-2-pyrrolidinecarbonitrile dihydrochloride] | 61 | –
16 | CC(C)(CNc1nccs1)NCC(=O)N1CCC[C@H]1C#N [Compound 226, (S)-1-[2-Methyl-1-(2-thiazolylamino)-2-propylamino]acetyl-2-pyrrolidinecarbonitrile fumarate] | 18 | –
